Measured values from patent publication US10405547B2, “Substituted cyclic amides as herbicides” (FMC Corporation, priority 2015, dated 2019).

Experiments:
Format in all cases: in vivo
[1] = system: barnyardgrass (Echinochloa crus-galli); assay: Test A preemergence, barnyardgrass; conditions: 0 to 100 scale (0 no effect, 100 complete control)
Text: (§1) Test A Seeds of plant species selected from barnyardgrass (Echinochloa crus-galli), kochia (Kochia scoparia), ragweed (common ragweed, Ambrosia elatior), ryegrass, Italian (Lolium multiflorum), foxtail, giant (Setaria faberii), and pigweed (Amaranthus retroflexus), were planted into a blend of loam soil and sand and treated preemergence with a directed soil spray using test chemicals formulated in a non-phytotoxic solvent mixture which included a surfactant.
(§2) At the same time, plants selected from these weed species and also blackgrass (Alopecurus myosuroides), galium (catchweed bedstraw, Galium aparine), wheat (Triticum aestivum), and corn (Zea mays) were planted in pots containing the same blend of loam soil and sand and treated with postemergence applications of test chemicals formulated in the same manner. Plants ranged in height from 2 to 10 cm and were in the one- to two-leaf stage for the postemergence treatment. Treated plants and untreated controls were maintained in a greenhouse for approximately 10 days, after which time all treated plants were compared to untreated controls and visually evaluated for injury. Plant response ratings, summarized in Table A, are based on a 0 to 100 scale where 0 is no effect and 100 is complete control. A dash (-) response means no test result.

kochia (Kochia scoparia) [2] = assay: Test A preemergence, kochia; conditions: 0 to 100 scale (0 no effect, 100 complete control)
Text: as §1, §2

[3] = system: ragweed (common ragweed, Ambrosia elatior); assay: Test A preemergence, ragweed; conditions: 0 to 100 scale (0 no effect, 100 complete control)
Text: as §1, §2

[4] = system: ryegrass, Italian (Lolium multiflorum); assay: Test A preemergence, Italian ryegrass; conditions: 0 to 100 scale (0 no effect, 100 complete control)
Text: as §1, §2

[5] = system: foxtail, giant (Setaria faberii); assay: Test A preemergence, giant foxtail; conditions: 0 to 100 scale (0 no effect, 100 complete control)
Text: as §1, §2

[6] = system: pigweed (Amaranthus retroflexus); assay: Test A preemergence, pigweed; conditions: 0 to 100 scale (0 no effect, 100 complete control)
Text: as §1, §2

[7] = system: barnyardgrass (Echinochloa crus-galli); assay: Test A postemergence, barnyardgrass; conditions: visual injury, 0 to 100 scale (0 no effect, 100 complete control), approximately 10 days
Text: as §1, §2

kochia (Kochia scoparia) [8] = assay: Test A postemergence, kochia; conditions: visual injury, 0 to 100 scale (0 no effect, 100 complete control), approximately 10 days
Text: as §1, §2

[9] = system: ragweed (common ragweed, Ambrosia elatior); assay: Test A postemergence, ragweed; conditions: visual injury, 0 to 100 scale (0 no effect, 100 complete control), approximately 10 days
Text: as §1, §2

[10] = system: ryegrass, Italian (Lolium multiflorum); assay: Test A postemergence, Italian ryegrass; conditions: visual injury, 0 to 100 scale (0 no effect, 100 complete control), approximately 10 days
Text: as §1, §2

[11] = system: foxtail, giant (Setaria faberii); assay: Test A postemergence, giant foxtail; conditions: visual injury, 0 to 100 scale (0 no effect, 100 complete control), approximately 10 days
Text: as §1, §2

[12] = system: pigweed (Amaranthus retroflexus); assay: Test A postemergence, pigweed; conditions: visual injury, 0 to 100 scale (0 no effect, 100 complete control), approximately 10 days
Text: as §1, §2

[13] = system: blackgrass (Alopecurus myosuroides); assay: Test A postemergence, blackgrass; conditions: visual injury, 0 to 100 scale (0 no effect, 100 complete control), approximately 10 days
Text: as §1, §2

[14] = system: galium (catchweed bedstraw, Galium aparine); assay: Test A postemergence, galium; conditions: visual injury, 0 to 100 scale (0 no effect, 100 complete control), approximately 10 days
Text: as §1, §2

[15] = system: wheat (Triticum aestivum); assay: Test A postemergence, wheat; conditions: visual injury, 0 to 100 scale (0 no effect, 100 complete control), approximately 10 days
Text: as §1, §2

corn (Zea mays) = assay: Test A postemergence, corn; conditions: visual injury, 0 to 100 scale (0 no effect, 100 complete control), approximately 10 days
Text: as §1, §2

Compound	Plant response rating, Barnyardgrass ([1]; 125 g ai/ha)	Plant response rating, Barnyardgrass ([1]; 500 g ai/ha)	Plant response rating, Kochia (kochia (Kochia scoparia) [2]; 125 g ai/ha)	Plant response rating, Kochia (kochia (Kochia scoparia) [2]; 500 g ai/ha)	Plant response rating, Ragweed ([3]; 125 g ai/ha)	Plant response rating, Ragweed ([3]; 500 g ai/ha)	Plant response rating, Ryegrass, Italian ([4]; 125 g ai/ha)	Plant response rating, Ryegrass, Italian ([4]; 500 g ai/ha)	Plant response rating, Foxtail, Giant ([5]; 125 g ai/ha)	Plant response rating, Foxtail, Giant ([5]; 500 g ai/ha)	Plant response rating, Pigweed ([6]; 125 g ai/ha)	Plant response rating, Pigweed ([6]; 500 g ai/ha)	Plant response rating, Barnyardgrass ([7]; 125 g ai/ha)	Plant response rating, Barnyardgrass ([7]; 500 g ai/ha)	Plant response rating, Kochia (kochia (Kochia scoparia) [8]; 125 g ai/ha)	Plant response rating, Kochia (kochia (Kochia scoparia) [8]; 500 g ai/ha)	Plant response rating, Ragweed ([9]; 125 g ai/ha)	Plant response rating, Ragweed ([9]; 500 g ai/ha)	Plant response rating, Ryegrass, Italian ([10]; 125 g ai/ha)	Plant response rating, Ryegrass, Italian ([10]; 500 g ai/ha)	other results
O=C1NCC(c2cccc(COc3ccccc3)c2)C1C(=O)Nc1ccc(F)c(F)c1F (stereo not drawn) [Compound 17]	20	70	0	30	0	0	0	0	50	80	0	0	30	40	0	0	0	0	0	0	Plant response rating, Foxtail, Giant ([11]; 125 g ai/ha): 30; Plant response rating, Foxtail, Giant ([11]; 500 g ai/ha): 40; Plant response rating, Pigweed ([12]; 125 g ai/ha): 0; Plant response rating, Pigweed ([12]; 500 g ai/ha): 0; Plant response rating, Blackgrass ([13]; 125 g ai/ha): 0; Plant response rating, Blackgrass ([13]; 500 g ai/ha): 0; Plant response rating, Galium ([14]; 125 g ai/ha): 50; Plant response rating, Galium ([14]; 500 g ai/ha): 30; Plant response rating, Wheat ([15]; 125 g ai/ha): 0; Plant response rating, Wheat ([15]; 500 g ai/ha): 0; Plant response rating, Corn (corn (Zea mays); 125 g ai/ha): 0; Plant response rating, Corn (corn (Zea mays); 500 g ai/ha): 0
O=C1NCC(c2cccc(COc3ccccc3)c2)C1C(=O)Nc1ccccc1Cl (stereo not drawn) [Compound 18]	0	0	0	0	0	0	0	0	0	20	0	0	0	20	0	0	0	0	0	0	Plant response rating, Foxtail, Giant ([11]; 125 g ai/ha): 0; Plant response rating, Foxtail, Giant ([11]; 500 g ai/ha): 0; Plant response rating, Pigweed ([12]; 125 g ai/ha): 0; Plant response rating, Pigweed ([12]; 500 g ai/ha): 0; Plant response rating, Blackgrass ([13]; 125 g ai/ha): 0; Plant response rating, Blackgrass ([13]; 500 g ai/ha): 0; Plant response rating, Galium ([14]; 125 g ai/ha): 0; Plant response rating, Galium ([14]; 500 g ai/ha): 0; Plant response rating, Wheat ([15]; 125 g ai/ha): 0; Plant response rating, Wheat ([15]; 500 g ai/ha): 0; Plant response rating, Corn (corn (Zea mays); 125 g ai/ha): 0; Plant response rating, Corn (corn (Zea mays); 500 g ai/ha): 0
O=C1NCC(c2cccc(COc3ccccc3)c2)C1C(=O)Nc1ccccc1F (stereo not drawn) [Compound 19]	30	70	0	40	0	0	0	0	30	80	0	0	20	50	0	0	0	0	0	0	Plant response rating, Foxtail, Giant ([11]; 125 g ai/ha): 20; Plant response rating, Foxtail, Giant ([11]; 500 g ai/ha): 40; Plant response rating, Pigweed ([12]; 125 g ai/ha): 0; Plant response rating, Pigweed ([12]; 500 g ai/ha): 0; Plant response rating, Blackgrass ([13]; 125 g ai/ha): 0; Plant response rating, Blackgrass ([13]; 500 g ai/ha): 0; Plant response rating, Galium ([14]; 125 g ai/ha): 0; Plant response rating, Galium ([14]; 500 g ai/ha): 0; Plant response rating, Wheat ([15]; 125 g ai/ha): 0; Plant response rating, Wheat ([15]; 500 g ai/ha): 0; Plant response rating, Corn (corn (Zea mays); 125 g ai/ha): 0; Plant response rating, Corn (corn (Zea mays); 500 g ai/ha): 0
